Assay results: BigSolDB 2.1

CC(=O)O[C@]1(C(C)=O)CC[C@H]2[C@@H]3C=C(Cl)C4=CC(=O)[C@@H]5C[C@@H]5[C@]4(C)[C@H]3CC[C@@]21C
solubility (mole fraction)
Conditions	273.15 K	278.15 K	283.15 K	288.15 K	293.15 K	298.15 K	303.15 K	308.15 K	313.15 K	318.15 K
in MTBE	0.000675	0.000675	0.000676	0.000676	0.000677	0.000677	0.000678	0.000678	0.000679	0.000679
in methanol	0.000229	0.000229	0.000229	0.00023	0.00023	0.00023	0.00023	0.00023	0.00023	0.000231
in water	6.57e-07	8.66e-07	1.16e-06	1.56e-06	2.09e-06	2.79e-06	3.67e-06	4.88e-06	6.36e-06	8.21e-06
